Data from patent US20120108585A1, “BENZOXAZOLES, BENZTHIAZOLES AND RELATED ANALOGS AS SIRTUIN MODULATORS” (Sirtris Pharmaceuticals, Inc., priority 2008, published 2012).

Biological target: T1, SIRT1 (Homo sapiens, UniProt Q96EB6)
T1 sequence (Q96EB6 1-747): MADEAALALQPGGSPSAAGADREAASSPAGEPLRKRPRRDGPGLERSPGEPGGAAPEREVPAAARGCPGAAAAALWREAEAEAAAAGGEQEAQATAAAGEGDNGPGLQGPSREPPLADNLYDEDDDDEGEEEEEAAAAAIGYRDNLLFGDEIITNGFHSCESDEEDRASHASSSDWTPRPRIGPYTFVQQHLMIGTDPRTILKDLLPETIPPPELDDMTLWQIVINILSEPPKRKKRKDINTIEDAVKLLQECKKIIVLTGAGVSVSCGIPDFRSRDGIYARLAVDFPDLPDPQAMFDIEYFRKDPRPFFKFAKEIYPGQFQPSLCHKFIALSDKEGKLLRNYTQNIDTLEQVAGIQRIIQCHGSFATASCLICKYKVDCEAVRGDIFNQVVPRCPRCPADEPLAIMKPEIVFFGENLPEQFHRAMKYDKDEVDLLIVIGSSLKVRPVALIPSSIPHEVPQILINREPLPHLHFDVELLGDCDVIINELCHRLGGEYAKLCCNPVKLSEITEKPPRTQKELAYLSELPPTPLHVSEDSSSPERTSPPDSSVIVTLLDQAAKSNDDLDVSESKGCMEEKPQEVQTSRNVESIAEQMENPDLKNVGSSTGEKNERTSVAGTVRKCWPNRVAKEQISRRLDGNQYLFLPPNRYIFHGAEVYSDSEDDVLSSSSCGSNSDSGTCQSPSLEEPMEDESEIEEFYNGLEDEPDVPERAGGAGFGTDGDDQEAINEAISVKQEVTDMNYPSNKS
Assay: mass spectrometry based assay to identify modulators of SIRT1 activity (deacetylation of p53-based acetylated peptide)
Format: biochemical
Conditions: SIRT1 activation, 10 nM SIRT1, 0.5 μM peptide substrate, 120 μM βNAD+, 25 minutes at 25° C.; for Emax: 25 min, read-out: % Fold Act. (percent maximum fold activation)
Excerpt: A mass spectrometry based assay was used to identify modulators of SIRT1 activity. The mass spectrometry based assay utilizes a peptide having 20 amino acid residues as follows: Ac-EE-K(biotin)-GQSTSSHSK(Ac)NleSTEG-K(5TMR)-EE-NH2 (SEQ ID NO: 1) wherein K(Ac) is an acetylated lysine residue and Nle is a norleucine. The peptide is labeled with the fluorophore 5TMR (excitation 540 nm/emission 580 nm) at the C-terminus. The sequence of the peptide substrate is based on p53 with several modifications. In addition, the methionine residue naturally present in the sequence was replaced with the norleucine because the methionine may be susceptible to oxidation during synthesis and purification.
The mass spectrometry assay is conducted as follows: 0.5 μM peptide substrate and 120 μM βNAD^+ is incubated with 10 nM SIRT1 for 25 minutes at 25° C. in a reaction buffer (50 mM Tris-acetate pH 8, 137 mM NaCl, 2.7 mM KCl, 1 mM MgCl2, 5 mM DTT, 0.05% BSA). Test compounds may be added to the reaction as described above. The SirT1 gene is cloned into a T7-promoter containing vector and transformed into BL21(DE3). After the 25 minute incubation with SIRT1, 10 μL of 10% formic acid is added to stop the reaction. Reactions are sealed and frozen for later mass spec analysis. Determination of the mass of the substrate peptide allows for precise determination of the degree of acetylation (i.e. starting material) as compared to deacetylated peptide (product).
A control for inhibition of sirtuin activity is conducted by adding 1 μL of 500 mM nicotinamide as a negative control at the start of the reaction (e.g., permits determination of maximum sirtuin inhibition). A control for activation of sirtuin activity is conducted using 10 nM of sirtuin protein, with 1 μL of DMSO in place of compound, to determine the amount of deacetylation of the substrate at a given timepoint within the linear range of the assay. This timepoint is the same as that used for test compounds and, within the linear range, the endpoint represents a change in velocity.
For the above assay, SIRT1 protein was expressed and purified as follows. The SirT1 gene was cloned into a T7-promoter containing vector and transformed into BL21(DE3). The protein was expressed by induction with 1 mM IPTG as an N-terminal His-tag fusion protein at 18° C. overnight and harvested at 30,000×g. Cells were lysed with lysozyme in lysis buffer (50 mM Tris-HCl, 2 mM Tris[2-carboxyethyl]phosphine (TCEP), 10 μM ZnCl2, 200 mM NaCl) and further treated with sonication for 10 min for complete lysis. The protein was purified over a Ni-NTA column (Amersham) and fractions containing pure protein were pooled, concentrated and run over a sizing column (Sephadex S200 26/60 global). The peak containing soluble protein was collected and run on an Ion-exchange column (MonoQ). Gradient elution (200 mM-500 mM NaCl) yielded pure protein. This protein was concentrated and dialyzed against dialysis buffer (20 mM Tris-HCl, 2 mM TCEP) overnight. The protein was aliquoted and frozen at −80° C. until further use.
Sirtuin modulating compounds that activated SIRT1 were identified using the assay described above and are shown below in Table 1. The EC1-5 values for the activating compounds are represented by A (EC1-5<1.0 uM), B (EC1-5 1-25 uM), C (EC1-5>25 uM). The percent maximum fold activation is represented by A (Fold activation>150%) or B (Fold Activation<150%).

O=C(Nc1cccc(CN2CCOCC2)n1)c1cccc2oc(-c3ccccc3C(F)(F)F)nc12 [Compound 140]
Emax: > 150% | EC1.5: A (EC1-5<1.0 uM)

O=C(Nc1nccs1)c1cccc2oc(-c3ccccc3OC(F)(F)F)nc12 [Compound 141]
Emax: > 150% | EC1.5: B (EC1-5 1-25 uM)

O=C(Nc1ccccn1)c1cccc2oc(-c3ccccc3OC(F)(F)F)nc12 [Compound 142]
Emax: > 150% | EC1.5: B (EC1-5 1-25 uM)

O=C(Nc1nccs1)c1cccc2oc(-c3ccc(F)cc3C(F)(F)F)nc12 [Compound 143]
Emax: < 150% | EC1.5: B (EC1-5 1-25 uM)

O=C(Nc1ccccn1)c1cccc2oc(-c3ccc(F)cc3C(F)(F)F)nc12 [Compound 144]
Emax: < 150% | EC1.5: B (EC1-5 1-25 uM)

O=C(Nc1nc(CN2CCOCC2)cs1)c1cccc2oc(-c3ccc(F)cc3C(F)(F)F)nc12 [Compound 145]
Emax: > 150% | EC1.5: B (EC1-5 1-25 uM)

O=C(Nc1cccc(CN2CCOCC2)n1)c1cccc2oc(-c3ccc(F)cc3C(F)(F)F)nc12 [Compound 146]
Emax: > 150% | EC1.5: A (EC1-5<1.0 uM)

O=C(Nc1nccs1)c1cccc2oc(-c3cc(F)ccc3C(F)(F)F)nc12 [Compound 147]
Emax: < 150% | EC1.5: C (EC1-5>25 uM)

O=C(Nc1ccccn1)c1cccc2oc(-c3cc(F)ccc3C(F)(F)F)nc12 [Compound 148]
Emax: < 150% | EC1.5: C (EC1-5>25 uM)

O=C(Nc1nc(CN2CCOCC2)cs1)c1cccc2oc(-c3cc(F)ccc3C(F)(F)F)nc12 [Compound 149]
Emax: > 150% | EC1.5: A (EC1-5<1.0 uM)

O=C(Nc1cccc(CN2CCOCC2)n1)c1cccc2oc(-c3cc(F)ccc3C(F)(F)F)nc12 [Compound 150]
Emax: > 150% | EC1.5: A (EC1-5<1.0 uM)

O=C(Nc1cccc(N2CCOCC2)n1)c1cccc2sc(-c3cccc(C(F)(F)F)c3)nc12 [Compound 151]
Emax: < 150% | EC1.5: A (EC1-5<1.0 uM)

O=C(Nc1cccc(N2CCCC2)n1)c1cccc2sc(-c3cccc(C(F)(F)F)c3)nc12 [Compound 153]
Emax: > 150% | EC1.5: B (EC1-5 1-25 uM)

O=C(Nc1ccnc(N2CCCC2)c1)c1cccc2sc(-c3cccc(C(F)(F)F)c3)nc12 [Compound 154]
Emax: > 150% | EC1.5: A (EC1-5<1.0 uM)
